Assay results: patent US20030187067A1, “Use of anethole-dithiolethione for preventing and treating drug-induced tendon toxicity” (priority 2000, published 2003)

System: immortalised tenocytes, known as TENO (Teno Cell Line)
Assay: type II MIFALC (Microtitration Fluorimetric Assay on Living Cells) test, H2DCF-DA fluorescence, tendon toxicity of fluoroquinolones/statins
Type: cell-based
Details: pretreatment with anethole-dithiolethione 20 μM, 72 hours before contact with the xenobiotics; free radicals by H2DCF-DA fluorescence read after 40 minutes
Protocol: The test carried out is a type II MIFALC (Microtitration Fluorimetric Assay on Living Cells) test, that is to say that all of the steps, including detection/disclosure, are carried out on living cells, the test using fluorimetric detection under cold light, in order to achieve the maximum level of detection sensitivity and specificity necessary for the intracellular studies. The tests are carried out on a line of immortalised tenocytes, known as TENO (Teno Cell Line).
The cultures are produced in […] flasks for cell multiplication and in plates having 96 shallow wells for culture.
The tenocytes are placed in suspension with a small amount of trypsin. When the cells are released, the action of the trypsin is blocked by the addition of culture medium containing fetal calf serum. After centrifuging, the residue is taken up by complete medium HAM F-12, then the cells are counted using a Malassez or Thoma hemocytometer. Next, a solution of 27,500 cells/ml is prepared in the complete culture medium and 200 μl are placed in each of the central 60 wells of the microplates having 96 wells. Therefore, there are 5,500 cells per well. The plates are placed in incubation at 37° C. in a humid atmosphere of air/CO2 (95%/5%). The test is carried out after 48 hours when the cells adhere to the support. […]
The fluorescence units are read after 40 minutes.

COc1ccc(-c2cc(=S)ss2)cc1 [anethole-dithiolethione]
protection against tendon toxicity (cytotoxic effect) of fluoroquinolones in cellular tenocyte model: protects against this tendon toxicity
